Like-named read-outs stand apart in the source and are kept apart here. Non-standard residues stand in square brackets, D forms with d. Residues, ends and D or L forms follow the SMILES beside them. Bpa = N[CH](Cc1ccc(C(=O)c2ccccc2)cc1)C(=O)O; 2Nal = N[CH](Cc1ccc2ccccc2c1)C(=O)O; Aib = CC(C)(N)C(=O)O
How the values were obtained:
[1] = average over λex 224, 266, 280 nm
[2] = cited from earlier work

Compound	kSSET (Average) [1] [s⁻¹]	kSSET ([2]; λex 224 nm) [s⁻¹]	kSSET ([2]; λex 266 nm) [s⁻¹]	kSSET ([2]; λex 280 nm) [s⁻¹]
CC(NC(=O)C(C)(C)NC(=O)C(Cc1ccc(C(=O)c2ccccc2)cc1)NC(=O)C(C)(C)NC(=O)C(Cc1ccc2ccccc2c1)NC(=O)C(C)(C)NC(=O)C(C)NC(=O)C(C)(C)N)C(=O)O (single isomer, unassigned) [Compound 2B]	3.9e+07	3.1e+07	3.9e+07	4.7e+07
CC1NC(=O)C(C)(C)NC(=O)C(Cc2ccc(C(=O)c3ccccc3)cc2)NC(=O)C(C)(C)NC(=O)C(C)NC(=O)C(C)(C)NC(=O)C(Cc2ccc3ccccc3c2)NC(=O)C(C)(C)NC1=O (centres unmarked) [Compound 1A] (cyclo([Aib][2Nal][Aib]A[Aib][Bpa][Aib]A); configuration not given here)	3.67e+07	3.8e+07	3.6e+07	3.6e+07
CC(NC(=O)C(C)(C)NC(=O)C(Cc1ccc(C(=O)c2ccccc2)cc1)NC(=O)C(C)(C)NC(=O)C(C)NC(=O)C(C)(C)NC(=O)C(Cc1ccc2ccccc2c1)NC(=O)C(C)(C)N)C(=O)O (centres unmarked) [Compound 1B] (H-[Aib][2Nal][Aib]A[Aib][Bpa][Aib]A-OH; configuration not given here)		2.44e+08	1.8e+08	1.36e+08

Source: patent publication US9662388B2, “Methods and systems for treating cell proliferation disorders using plasmonics enhanced photospectral therapy (PEPST) and exciton-plasmon enhanced phototherapy (EPEP)” (Duke University, priority 2008, dated 2017)
